Assay results taken from patent US9133140B2, “Cycloalkylamne derivatives” (Daiichi Sankyo Company, Limited, priority 2008, dated 2015).
Counter-ions that a name gives are not always drawn. Like-named read-outs stand apart in the source and are kept apart here.

What was measured:
[1] = target: T1, human CaSR (Homo sapiens, UniProt P41180); assay: Human CaSR activity measurement test (intracellular calcium in TT cells); format: cell-based; conditions: [EC50 of test compound]/[EC50 of Compound A], intracellular calcium fluorescence
T1 construct: TT cells are cell lines that express human CaSR; endogenous in cells; host or cells: TT cells (human medullary thyroid carcinoma cell line)
T1 sequence (P41180 20-1078): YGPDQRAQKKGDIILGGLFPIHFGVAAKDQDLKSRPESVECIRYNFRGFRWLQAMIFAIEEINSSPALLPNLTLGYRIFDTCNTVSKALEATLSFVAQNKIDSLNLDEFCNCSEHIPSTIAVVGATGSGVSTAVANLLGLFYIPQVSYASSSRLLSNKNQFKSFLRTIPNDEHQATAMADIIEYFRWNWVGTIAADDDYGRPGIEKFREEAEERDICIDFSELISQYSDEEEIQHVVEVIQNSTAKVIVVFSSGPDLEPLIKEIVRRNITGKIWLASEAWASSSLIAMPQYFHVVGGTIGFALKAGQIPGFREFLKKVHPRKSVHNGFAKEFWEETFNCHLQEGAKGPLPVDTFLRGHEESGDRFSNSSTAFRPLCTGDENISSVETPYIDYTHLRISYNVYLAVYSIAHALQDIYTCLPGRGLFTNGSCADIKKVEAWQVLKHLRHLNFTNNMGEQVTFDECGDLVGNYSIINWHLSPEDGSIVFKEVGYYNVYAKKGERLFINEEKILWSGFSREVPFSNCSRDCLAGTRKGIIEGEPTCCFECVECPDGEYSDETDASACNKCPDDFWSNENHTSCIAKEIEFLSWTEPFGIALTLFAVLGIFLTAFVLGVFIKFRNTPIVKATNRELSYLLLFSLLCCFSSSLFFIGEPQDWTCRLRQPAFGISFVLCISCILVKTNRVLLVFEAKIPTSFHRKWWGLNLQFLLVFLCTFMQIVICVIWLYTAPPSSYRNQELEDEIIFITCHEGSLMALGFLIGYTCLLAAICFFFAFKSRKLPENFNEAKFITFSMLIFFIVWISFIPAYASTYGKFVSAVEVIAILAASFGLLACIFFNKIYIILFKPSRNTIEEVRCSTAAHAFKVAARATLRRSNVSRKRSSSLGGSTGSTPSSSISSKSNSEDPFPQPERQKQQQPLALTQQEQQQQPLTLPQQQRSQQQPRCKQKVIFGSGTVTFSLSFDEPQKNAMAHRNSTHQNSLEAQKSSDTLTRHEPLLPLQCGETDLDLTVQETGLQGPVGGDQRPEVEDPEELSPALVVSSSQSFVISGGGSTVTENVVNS
Experimental: It is reported that human medullary thyroid carcinoma cell lines TT cells are cell lines that express human CaSR, and when CaSR is activated by extracellular calcium ions or the like, intracellular calcium ion concentration increases (Endocrinology 137: 3842-3848, 1996). Accordingly, an activating action of the test compounds with respect to human CaSR was evaluated by using the change in intracellular calcium concentration of TT cells as an indicator. TT cells were inoculated onto a black well/clear bottom 96 well plate (poly-D-lysine coat: manufactured by BD biosciences), and were cultured for approximately 24 hours in a F-12 Nutrient Mixture (Kaighn's modification) culture media containing 10% calf serum and 0.5% antibiotic antimycotic. […] Then, the plate was allowed to stand for 1 hour at 37° C. Subsequently, the above-mentioned plate was placed onto FlexStation (manufactured by Molecular Device) or FlexStation 3 (manufactured by Molecular Device), and fluorescence intensity before and after treatment with the test compound dissolved in a buffer for measurement (126 mM NaCl, 4 mM KCl, 1 mM MgCl2, 20 mM HEPES (pH 7.4), 5.6 mM glucose, 2 mM CaCl2) was measured. […] Nagano, Pharmacol. […] WO 1996/12697) as a comparative compound, by conducting a similar procedure. From the following equation, the human CaSR activity of each of the test compounds was calculated as the relative activity with respect to Compound A. Relative activity with respect to Compound A=[EC50 of test compound]/[EC50 of Compound A]

[2] = test system: calcium ion concentration in the blood; assay: Measurement test for concentration of parathyroid hormone and calcium ion in rat blood; format: in vivo; conditions: read-out: reduction of calcium concentration in the blood
Experimental: Three male SD rats (manufactured by Japan SLC, Inc.) were orally administered with the test compound, and effects on the concentration of parathyroid hormone (PTH) in the blood and concentration of the calcium ion in the blood were studied.
The test compound was administered by dissolving or suspending it in a 0.5% methyl cellulose 400 (MC) solution or 0.5% MC solution containing 10% of ethanol. (In addition, Compound A used in Test Example 1 was administered as a MC suspension by dosage of 30 mg/kg, and was studied as a comparative example.) Blood was collected from the jugular vein under anesthesia with halothane or isoflurane, before administration of the test compound, and 2, 4, 6 or 8 and 24 hours after administration. Calcium ion concentration in the blood was measured using cartridge EG7+(manufactured by Fuso Chemical Co., Ltd.) and i-STAT 300F (manufactured by Fuso Chemical Co., Ltd.). In addition, plasma intact PTH concentration was measured using Rat intact PTH ELISA kit (manufactured by Immutopics).
The transition of calcium ion concentration in the blood over time from before administration to 24 hours after administration of each of the test compounds was plotted, and the decrease in calcium ion concentration in the blood from the value before administration was calculated as an area value.

[3] = male SD rats, oral, 10 mg/kg, 4 hours after administration

C[C@@H](NC1CC[C@@H](c2ccc(OCC(=O)O)cc2)C1)c1ccc(F)c2ccccc12 (mixture of isomers) [Example 16, {4-[(1R)-3-{[(1R)-1-(4-Fluoronaphthalen-1-yl)ethyl]amino}cyclopentyl]phenoxy}acetic acid]
Relative activity with respect to Compound A [1]: 0.72
inhibition in vivo at 10 mg/kg [2, 3]: ≥ 30%

C[C@@H](NCCCc1cccc(C(F)(F)F)c1)c1cccc2ccccc12 [Compound A, ((R)-1-naphthalen-1-yl-ethyl)-[3-(3-trifluoromethyl-phenyl)-propyl]-amine monohydrochloride, reference compound]
inhibition in vivo at 30 mg/kg ([2]; male SD rats, oral, 30 mg/kg, 4 hours after administration): 15 to 30%

C[C@@H](N[C@H]1CC[C@@H](c2cccc(-c3nn[nH]n3)c2)C1)c1cccc2ccccc12 [Example 1, (1S,3R)-N-[(1R)-1-(Naphthalen-1-yl)ethyl]-3-[3-(2H-tetrazol-5-yl)phenyl]cyclopentanamine hydrochloride]
Relative activity with respect to Compound A [1]: 0.30

C[C@@H](N[C@H]1CC[C@@H](c2ccc(-c3nn[nH]n3)cc2)C1)c1cccc2ccccc12 [Example 3, (1S,3R)-N-[(1R)-1-(Naphthalen-1-yl)ethyl]-3-[4-(2H-tetrazol-5-yl)phenyl]cyclopentanamine hydrochloride]
Relative activity with respect to Compound A [1]: 0.18
inhibition in vivo at 10 mg/kg [2, 3]: ≥ 30%

C[C@@H](NC1CC[C@H](c2ccc(-c3nn[nH]n3)cc2)C1)c1cccc2ccccc12 (stereo partly drawn) [Example 4, (3S)-N-[(1R)-1-(Naphthalen-1-yl)ethyl]-3-[4-(2H-tetrazol-5-yl)phenyl]cyclopentanamine hydrochloride]
Relative activity with respect to Compound A [1]: 0.33

C[C@@H](N[C@H]1CC[C@@H](c2ccc(C(=O)NCC(=O)O)cc2)C1)c1cccc2ccccc12 [Example 5, N-{4-[(1R,3S)-3-{[(1R)-1-(Naphthalen-1-yl)ethyl]amino}cyclopentyl]benzoylglycine hydrochloride]
Relative activity with respect to Compound A [1]: 0.52

C[C@@H](N[C@H]1CC[C@@H](c2cccc(CC(=O)O)c2)C1)c1cccc2ccccc12 [Example 7, {3-[(1R,3S)-3-{[(1R)-1-(Naphthalen-1-yl)ethyl]amino}cyclopentyl]phenyl}acetic acid hydrochloride]
Relative activity with respect to Compound A [1]: 0.26
inhibition in vivo at 10 mg/kg [2, 3]: ≥ 30%

C[C@@H](N[C@H]1CC[C@@H](c2ccc(CC(=O)O)cc2)C1)c1cccc2ccccc12 [Example 8, {4-[(1R,3S)-3-{[(1R)-1-(Naphthalen-1-yl)ethyl]amino}cyclopentyl]phenyl}acetic acid hydrochloride]
Relative activity with respect to Compound A [1]: 0.61
inhibition in vivo at 10 mg/kg [2, 3]: ≥ 30%

C[C@@H](N[C@H]1CC[C@@H](c2ccc(CCC(=O)O)cc2)C1)c1cccc2ccccc12 [Example 9, 3-{4-(1R,3S)-3-{[(1R)-1-(Naphthalen-1-yl)ethyl]amino}cyclopentyl]phenyl}propanoic acid hydrochloride]
Relative activity with respect to Compound A [1]: 0.38

C[C@@H](N[C@H]1CC[C@@H](c2ccc(OCC(=O)O)cc2)C1)c1cccc2ccccc12 [Example 10, {4-[(1R,3S)-3-{[(1R)-1-(Naphthalen-1-yl)ethyl]amino}cyclopentyl]phenoxy}acetic acid hydrochloride]
Relative activity with respect to Compound A [1]: 0.28
inhibition in vivo at 10 mg/kg [2, 3]: ≥ 30%

C[C@@H](N[C@H]1CC[C@@H](c2cccc(OCC(=O)O)c2)C1)c1cccc2ccccc12 [Example 12, {3-[(1R,3S)-3-{[(1R)-1-(Naphthalen-1-yl)ethyl]amino}cyclopentyl]phenoxy}acetic acid hydrochloride]
Relative activity with respect to Compound A [1]: 0.36

Cc1ccc([C@@H](C)NC2CC[C@@H](c3ccc(OCC(=O)O)cc3)C2)c2ccccc12 (stereo partly drawn) [Example 22, {4-[(1R)-3-{[(1R)-1-(4-Methylnaphthalen-1-yl)ethyl]amino}cyclopentyl]phenoxy}acetic acid]
Relative activity with respect to Compound A [1]: 0.42

C[C@@H](N[C@H]1CC[C@@H](c2ccc(OCC(=O)O)cc2)C1)c1ccc(F)c2cc(F)ccc12 [Example 23, {4-[(1R,3S)-3-{[(1R)-1-(4,6-Difluoronaphthalen-1-yl)ethyl]amino}cyclopentyl]phenoxy}acetic acid]
inhibition in vivo at 0.3 mg/kg ([2]; male SD rats, oral, 0.3 mg/kg, 4 hours after administration): ≥ 20%

C[C@@H](N[C@H]1CC[C@@H](c2ccc(-c3nn[nH]n3)cc2)C1)c1ccc(F)c2ccccc12 [Example 26, (1S,3R)-N-[(1R)-1-(4-Fluoronaphthalen-1-yl)ethyl]-3-[4-(2H-tetrazol-5-yl)phenyl]cyclopentanamine hydrochloride]
Relative activity with respect to Compound A [1]: 0.27

C[C@@H](N[C@H]1CC[C@H](c2ccc(CCC(=O)O)cc2)C1)c1cccc2ccccc12 [Example 29, 3-{4-[(1S,3S)-3-[(1R)-1-(4-Naphthalen-1-yl)ethyl]amino}cyclopentyl]phenyl}propanoic acid hydrochloride]
Relative activity with respect to Compound A [1]: 0.30

Cc1cc([C@@H]2CC[C@H](N[C@H](C)c3cccc4ccccc34)C2)ccc1OCC(=O)O [Example 32, {2-Methyl-4-[(1R,3S)-3-{[(1R)-1-(naphthalen-1-yl)ethyl]amino}cyclopentyl]phenoxy}acetic acid hydrochloride]
Relative activity with respect to Compound A [1]: 0.26

C[C@@H](N[C@H]1CC[C@@H](c2ccc(NCC(=O)O)cc2)C1)c1ccc(F)c2ccccc12 [Example 35, N-{4-[(1R,3S)-3-{[(1R)-1-(4-Fluoronaphthalen-1-yl)ethyl]amino}cyclopentyl]phenyl}glycine 0.3 hydrochloride]
inhibition in vivo at 10 mg/kg ([2]; po, 4 h): ≥ 30%

C[C@@H](N[C@H]1CC[C@@H](c2ccc(SCC(=O)O)cc2)C1)c1ccc(F)c2ccccc12 [Example 37, ({4-[(1R,3S)-3-{[(1R)-1-(4-Fluoronaphthalen-1-yl)ethyl]amino}cyclopentyl]phenyl}thio)acetic acid hydrochloride]
Relative activity with respect to Compound A [1]: 0.10

C[C@@H](N[C@H]1CC[C@@H](c2ccc(OCc3nn[nH]n3)cc2)C1)c1cccc2ccccc12 [Example 38, (1S,3R)-N-[(1R)-1-(Naphthalen-1-yl)ethyl]-3-[4-(2H-tetrazol-5-ylmethoxy)phenyl]cyclopentanamine hydrochloride]
Relative activity with respect to Compound A [1]: 0.13

C[C@@H](N[C@H]1CC[C@@H](c2ccc(OCc3nn[nH]n3)cc2)C1)c1ccc(F)c2ccccc12 [Example 39, (1S,3R)-N-[(1R)-1-(4-Fluoronaphthalen-1-yl)ethyl]-3-[4-(2H-tetrazol-5-ylmethoxy)phenyl]cyclopentanamine hydrochloride]
Relative activity with respect to Compound A [1]: 0.07
